The source of these data is ChEMBL document CHEMBL5338771, “Trioxacarcin A Interactions with G-Quadruplex DNA Reveal Its Potential New Targets as an Anticancer Agent” (J Med Chem, 2023).

What all share (type): nucleic-acid assay
In assay [1] the test system is Quadruplex DNA. As to the kind of experiment: Induction of DNA stabilization in free RET G4 quadruplex DNA (unknown origin) assessed as melting temperature in 100 mM K+ buffer solution by DSC spectra analysis. (In general: Differential scanning calorimetry records heat flow against a reference as temperature is scanned.)
Assay [2] has as its system Quadruplex DNA. As to the kind of experiment: Induction of DNA stabilization in RET G4 quadruplex DNA (unknown origin) containing 2'-F base G4 assessed as melting temperature (reference value: 71.99 degreeC).
Assay [3] relates to Quadruplex DNA. As to the kind of experiment: Covalent binding affinity to RET G4 quadruplex DNA (unknown origin) assessed as alkylation at G4 base at 98 degC for 5 mins by DNA cleavage assay.
Assay [4] concerns Quadruplex DNA. As to the kind of experiment: Covalent binding affinity to RET G4 quadruplex DNA (unknown origin) assessed as alkylation at G14 base by DNA cleavage assay.
In assay [5] the test system is Quadruplex DNA. As to the kind of experiment: Covalent binding affinity to RET G4 quadruplex DNA (unknown origin) assessed as stable complex formation measured after 9 days by mass spectrum analysis. Particulars: time 9.0 day.
Assay [6] concerns Quadruplex DNA. As to the kind of experiment: Covalent binding affinity to RET G4 quadruplex DNA (unknown origin) by measuring molecular weight for complex formation by ESI mass spectrum analysis.
In assay [7] the test system is Quadruplex DNA. As to the kind of experiment: Binding affinity to RET G4 quadruplex DNA (unknown origin) by measuring chemical shift change for 0 to 21 days by 1D 1H-NMR analysis. As to conditions: time 0-21 day.
For assay [8], the system named is Quadruplex DNA. As to the kind of experiment: Binding affinity to c-MYC G4 quadruplex DNA (unknown origin) by 1D 1H-NMR analysis.
Assay [9] relates to Quadruplex DNA. As to the kind of experiment: Covalent binding affinity to RET G4 quadruplex DNA (unknown origin) assessed as alkylation at G6 base by DNA cleavage assay.
Assay [10] relates to Quadruplex DNA. As to the kind of experiment: Covalent binding affinity to RET G4 quadruplex DNA (unknown origin) assessed as stable complex formation by measuring molecular weight peak after 19 days by mass spectrum analysis. Particulars: time 19.0 day.
Assay [11] has as its system Quadruplex DNA. As to the kind of experiment: Induction of DNA stabilization in abasic-basic RET G4 quadruplex DNA (unknown origin) assessed as melting temperature in 100 mM K+ buffer solution by DSC spectra analysis.

Structures are written as SMILES. Activity calls are given as the source filed them. The rule behind the calls is not given here.

Regarding `COc1c2c(c(O)c3c4c(c(C)cc13)C1O[C@@]3(C(OC)OC)OC1[C@](O[C@H]1C[C@@H](O)[C@@](O)(C(C)=O)[C@H](C)O1)(O4)C31CO1)C(=O)[C@@H](O)C[C@@H]2OC1C[C@](C)(O)[C@@H](OC(C)=O)[C@@H](C)O1` (stereo partly specified), the Tm in [1] is 91 °C; in assay [2] it was 74.7 °C; in [11], 78 °C. Moreover, the outcome in assay [3], in assay [5], in assay [7] and in assay [8] was Active. Besides, the result in assay [4] and in assay [9] was inactive. The values for the Activity in [6] and in assay [10] were 6450 Da and 7330 Da, respectively.
